Source: the NIST ThermoML archive (doi:10.1021/je100715x)
± gives the expanded uncertainty stated by the source.

Key:
[1] = 101.33 kPa, Liquid; for viscosity: Capillary tube (Ostwald / Ubbelohde) method; for mass density: Vibrating tube method
[2] = refractive index (Na D-line) (dimensionless); details: 101.33 kPa, Liquid, Standard Abbe refractometry

SMILES | viscosity ([1]; 303.15 K) [mPa·s] | mass density ([1]; 303.15 K) [kg/m3] | viscosity ([1]; 308.15 K) [mPa·s] | mass density ([1]; 308.15 K) [kg/m3] | viscosity ([1]; 313.15 K) [mPa·s] | mass density ([1]; 313.15 K) [kg/m3] | refractive index ([2]; 303.15 K) | refractive index ([2]; 308.15 K) | refractive index ([2]; 313.15 K) | refractive index ([2]; 298.15 K)
CC(=O)c1ccccc1 [acetophenone] | 1.518 ± 0.02 | 1019.9 ± 0.3 | 1.378 ± 0.018 | 1016.9 ± 0.3 | 1.291 ± 0.016 | 1013.5 ± 0.3 | 1.5294 ± 0.0004 | 1.527 ± 0.0004 | 1.525 ± 0.0004 | –
O=C1CCCCC1 [cyclohexanone] | 1.816 ± 0.023 | 937.7 ± 0.4 | 1.657 ± 0.021 | 932.8 ± 0.4 | 1.542 ± 0.02 | 928.2 ± 0.4 | 1.4465 ± 0.0004 | 1.444 ± 0.0004 | 1.442 ± 0.0004 | –
O=C1CCCC1 [cyclopentanone] | 0.999 ± 0.013 | 938.5 ± 0.4 | 0.927 ± 0.012 | 933.9 ± 0.4 | 0.865 ± 0.011 | 929 ± 0.4 | 1.4335 ± 0.0004 | 1.431 ± 0.0004 | 1.429 ± 0.0004 | 1.4352 ± 0.0004

Results, then the molecule that gave them:

viscosity ([1]; 303.15 K) [mPa·s] | mass density ([1]; 303.15 K) [kg/m3] | viscosity ([1]; 308.15 K) [mPa·s] | mass density ([1]; 308.15 K) [kg/m3] | viscosity ([1]; 313.15 K) [mPa·s] | mass density ([1]; 313.15 K) [kg/m3] | refractive index ([2]; 303.15 K) | refractive index ([2]; 308.15 K) | refractive index ([2]; 313.15 K) | refractive index ([2]; 298.15 K) | SMILES
1.623 ± 0.021 | 1066.1 ± 0.4 | 1.48 ± 0.019 | 1060.5 ± 0.4 | 1.367 ± 0.018 | 1054.5 ± 0.4 | 1.4063 ± 0.0004 | 1.404 ± 0.0004 | 1.402 ± 0.0004 | – | CCOC(=O)C(=O)OCC [diethyl ethanedioate]
0.429 ± 0.006 | 805.7 ± 0.3 | 0.397 ± 0.005 | 801.7 ± 0.3 | 0.388 ± 0.005 | 797.7 ± 0.4 | 1.3879 ± 0.0004 | 1.3857 ± 0.0004 | 1.3835 ± 0.0004 | – | CCC(=O)CC [pentan-3-one]
